Source: PubChem BioAssay AID248 (DTP/NCI, 2004)
Where “and” joins values, the source holds several entries; their conditions need not be identical. Equal values may be shown once. Inconclusive results and toxic doses are left out. Cut-off read from the data, not from the text of the source: active = T/C of 150% or more; inactive = T/C below 125%.

Tested on: L1210 leukemia ip in BDF1 mice, survival T/C
Assay: NCI In Vivo Anticancer Drug Screen. Data for tumor model L1210 Leukemia (intraperitoneal) in B6D2F1 (BDF1) mice
Conditions: endpoint: mean survival time, higher = longer survival
Method in brief: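 In this screen, tumor-bearing mice given compound are compared to those given vehicle, and their survival values are reported as a treated-to-control quotient.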

[1] = dose: 100.0 mg/kg/injection, schedule: Q01DX001 (ip), vehicle: other
[2] = dose: 200.0 mg/kg/injection, schedule: Q01DX001 (ip), vehicle: other
[3] = dose: 50.0 mg/kg/injection, schedule: Q01DX009 (ip), vehicle: saline with Tween-80
[4] = dose: 100.0 mg/kg/injection, schedule: Q01DX001 (ip), vehicle: saline with Tween-80
[5] = dose: 100.0 mg/kg/injection, schedule: Q01DX009 (ip), vehicle: saline with Tween-80
[6] = dose: 200.0 mg/kg/injection, schedule: Q01DX001 (ip), vehicle: saline with Tween-80
[7] = dose: 200.0 mg/kg/injection, schedule: Q01DX009 (ip), vehicle: saline with Tween-80
[8] = dose: 25.0 mg/kg/injection, schedule: Q01DX001 (ip), vehicle: Klucel (hydroxypropylcellulose) (HPC)
[9] = dose: 50.0 mg/kg/injection, schedule: Q01DX001 (ip), vehicle: Klucel (hydroxypropylcellulose) (HPC)
[10] = dose: 100.0 mg/kg/injection, schedule: Q04DX002 (ip), vehicle: saline with Tween-80
[11] = dose: 200.0 mg/kg/injection, schedule: Q04DX002 (ip), vehicle: saline with Tween-80
[12] = dose: 100.0 mg/kg/injection, schedule: Q01DX001 (ip), vehicle: saline
[13] = dose: 200.0 mg/kg/injection, schedule: Q01DX001 (ip), vehicle: saline
[14] = dose: 400.0 mg/kg/injection, schedule: Q01DX001 (ip), vehicle: saline
[15] = dose: 100.0 mg/kg/injection, schedule: Q01DX009 (ip), vehicle: Klucel (hydroxypropylcellulose) (HPC)
[16] = dose: 200.0 mg/kg/injection, schedule: Q01DX009 (ip), vehicle: Klucel (hydroxypropylcellulose) (HPC)
[17] = dose: 100.0 mg/kg/injection, schedule: Q04DX003 (ip), vehicle: saline with Tween-80
[18] = dose: 200.0 mg/kg/injection, schedule: Q04DX003 (ip), vehicle: saline with Tween-80

Measured: T/C

C=[CH][Sn]([CH]=C)([CH]=C)[O]C(C)=O
inactive: dose: 1.56 mg/kg/injection, schedule: Q01DX009 (ip), vehicle: Klucel (hydroxypropylcellulose) (HPC) 103 % of control | dose: 3.12 mg/kg/injection, schedule: Q01DX009 (ip), vehicle: Klucel (hydroxypropylcellulose) (HPC) 94 % of control | dose: 6.25 mg/kg/injection, schedule: Q01DX009 (ip), vehicle: Klucel (hydroxypropylcellulose) (HPC) 98 % of control | dose: 12.5 mg/kg/injection, schedule: Q01DX009 (ip), vehicle: Klucel (hydroxypropylcellulose) (HPC) 103 % of control | dose: 12.5 mg/kg/injection, schedule: Q04DX002 (ip), vehicle: Klucel (hydroxypropylcellulose) (HPC) 102 % of control | dose: 25.0 mg/kg/injection, schedule: Q04DX002 (ip), vehicle: Klucel (hydroxypropylcellulose) (HPC) 105 % of control

CCOC(=O)C1C2=C(C(N)=O)C(=O)C(C(=O)O2)C1c1ccc(O)cc1 (stereo not given)
inactive: [1] 91 % of control | [2] 97 % of control

[O-]/[N+](=N\O)c1ccc(/[N+]([O-])=N\O)cc1
inactive: dose: 12.5 mg/kg/injection, schedule: Q01DX009 (ip), vehicle: saline with Tween-80 88 % of control | dose: 25.0 mg/kg/injection, schedule: Q01DX009 (ip), vehicle: saline with Tween-80 88 % of control | [3] 97 % of control and 107 % of control and 91 % of control | [4] 95 % of control | [5] 102 % of control | [6] 98 % of control | [7] 87 % of control

C=CCCc1c(N)nc(N)[nH]c1=O
inactive: [8] 100 % of control | [9] 100 % of control | dose: 100.0 mg/kg/injection, schedule: Q01DX001 (ip), vehicle: Klucel (hydroxypropylcellulose) (HPC) 96 % of control

O=C(N/N=C/c1ccc(Cl)cc1)C(O)(c1ccccc1)c1ccccc1
inactive: [5] 88 % of control | dose: 400.0 mg/kg/injection, schedule: Q01DX009 (ip), vehicle: saline with Tween-80 102 % of control

CCOC(=O)c1ccc(Nc2nnc(-c3c(OC)cc(OC)cc3OC)s2)cc1
inactive: [10] 93 % of control | [11] 104 % of control | dose: 400.0 mg/kg/injection, schedule: Q04DX002 (ip), vehicle: saline with Tween-80 101 % of control

CN(C)CCOCCN(C)C
inactive: [12] 102 % of control | [13] 105 % of control | [14] 102 % of control

CN1C2CCCC1CC(O)(c1ccccc1)C2 (stereo not given)
inactive: dose: 12.5 mg/kg/injection, schedule: Q01DX001 (ip), vehicle: Klucel (hydroxypropylcellulose) (HPC) 96 % of control | [8] 99 % of control | [9] 102 % of control

COC(=O)C[As+](c1ccccc1)(c1ccccc1)c1ccccc1
inactive: dose: 38.0 mg/kg/injection, schedule: Q04DX003 (ip), vehicle: saline 91 % of control | dose: 75.0 mg/kg/injection, schedule: Q04DX003 (ip), vehicle: saline 100 % of control | dose: 150.0 mg/kg/injection, schedule: Q04DX003 (ip), vehicle: saline 96 % of control

COc1cccc(/C=C/c2nc3ccccc3nc2/C=C/c2cccc(OC)c2OC)c1OC
inactive: dose: 50.0 mg/kg/injection, schedule: Q01DX009 (ip), vehicle: Klucel (hydroxypropylcellulose) (HPC) 95 % of control | [15] 92 % of control | [16] 101 % of control

O=C(Nc1ccccc1)P(=O)(O)c1ccccc1
inactive: dose: 62.5 mg/kg/injection, schedule: Q01DX001 (ip), vehicle: Klucel (hydroxypropylcellulose) (HPC) 102 % of control | dose: 125.0 mg/kg/injection, schedule: Q01DX001 (ip), vehicle: Klucel (hydroxypropylcellulose) (HPC) 102 % of control | dose: 250.0 mg/kg/injection, schedule: Q01DX001 (ip), vehicle: Klucel (hydroxypropylcellulose) (HPC) 92 % of control

O=C(/C=C/c1cccc2ccccc12)c1cccc([N+](=O)[O-])c1
inactive: dose: 100.0 mg/kg/injection, schedule: Q04DX002 (ip), vehicle: gum acacia 88 % of control | dose: 200.0 mg/kg/injection, schedule: Q04DX002 (ip), vehicle: gum acacia 92 % of control | dose: 400.0 mg/kg/injection, schedule: Q04DX002 (ip), vehicle: gum acacia 96 % of control

N/C(=N\O)c1cccc(/C(N)=N/O)c1
inactive: [12] 103 % of control

C1=C(c2ccccc2)c2c(c3ccccc3c3ccccc23)C(c2ccccc2)=CC1
inactive: dose: 50.0 mg/kg/injection, schedule: Q01DX001 (ip), vehicle: carboxymethylcellulose (CMC) 100 % of control | dose: 100.0 mg/kg/injection, schedule: Q01DX001 (ip), vehicle: carboxymethylcellulose (CMC) 100 % of control | dose: 200.0 mg/kg/injection, schedule: Q01DX001 (ip), vehicle: carboxymethylcellulose (CMC) 94 % of control | dose: 400.0 mg/kg/injection, schedule: Q01DX001 (ip), vehicle: carboxymethylcellulose (CMC) 94 % of control

COc1ccc(C(=O)/C=C/c2ccccc2)c(O)c1
inactive: dose: 50.0 mg/kg/injection, schedule: Q01DX001 (ip), vehicle: saline 98 % of control | [12] 102 % of control | [13] 102 % of control | [14] 98 % of control

O=C(N/N=C/c1ccc(Cl)cc1Cl)c1cccc([N+](=O)[O-])c1
inactive: [15] 100 % of control | [16] 100 % of control | dose: 400.0 mg/kg/injection, schedule: Q01DX009 (ip), vehicle: Klucel (hydroxypropylcellulose) (HPC) 94 % of control

O=c1c2ccccc2[nH]c2ccc(-n3nnc4ccccc4c3=O)cc12
inactive: dose: 6.0 mg/kg/injection, schedule: Q04DX003 (ip), vehicle: saline 103 % of control | dose: 12.0 mg/kg/injection, schedule: Q04DX003 (ip), vehicle: saline 89 % of control | dose: 25.0 mg/kg/injection, schedule: Q04DX003 (ip), vehicle: saline 94 % of control

CC(C)C(NC(=O)C1CSC(C)(C)N1C=O)C(N)=O (stereo not given)
inactive: [17] 101 % of control | [18] 98 % of control | dose: 400.0 mg/kg/injection, schedule: Q04DX003 (ip), vehicle: saline with Tween-80 101 % of control

CCCCCCCCCCCCCC(=O)OC1C(CO)OC2C1Oc1nc(=N)ccn12 (stereo not given)
active: dose: 25.0 mg/kg/injection, schedule: Q01DX009 (ip), vehicle: other 152 % of control | dose: 50.0 mg/kg/injection, schedule: Q01DX009 (ip), vehicle: other 171 % of control | dose: 100.0 mg/kg/injection, schedule: Q01DX009 (ip), vehicle: other 214 % of control | dose: 200.0 mg/kg/injection, schedule: Q01DX009 (ip), vehicle: other 179 % of control

S=C1NCC2CCc3c(ccc4ccccc34)N12 (stereo not given)
inactive: [1] 97 % of control | [2] 90 % of control | dose: 400.0 mg/kg/injection, schedule: Q01DX001 (ip), vehicle: other 95 % of control

O=C(O)Cc1cccc(S(=O)(=O)F)c1
inactive: dose: 25.0 mg/kg/injection, schedule: Q04DX003 (ip), vehicle: saline with Tween-80 96 % of control | [3] 109 % of control | dose: 50.0 mg/kg/injection, schedule: Q04DX003 (ip), vehicle: saline with Tween-80 99 % of control | [4] 96 % of control | [5] 111 % of control | [10] 91 % of control | [17] 99 % of control and 100 % of control | [6] 92 % of control | [7] 104 % of control | [11] 86 % of control | [18] 105 % of control | dose: 400.0 mg/kg/injection, schedule: Q01DX001 (ip), vehicle: saline with Tween-80 100 % of control

CN(C)CCOC(=O)c1cc(CCBr)cc(CCBr)c1
inactive: dose: 2.5 mg/kg/injection, schedule: Q01DX009 (ip), vehicle: saline 92 % of control | dose: 5.0 mg/kg/injection, schedule: Q01DX009 (ip), vehicle: saline 97 % of control | dose: 10.0 mg/kg/injection, schedule: Q01DX009 (ip), vehicle: Klucel (hydroxypropylcellulose) (HPC) 95 % of control | dose: 10.0 mg/kg/injection, schedule: Q01DX009 (ip), vehicle: saline 94 % of control

N=C(N)COc1ccccc1
inactive: dose: 100.0 mg/kg/injection, schedule: Q01DX001 (ip), vehicle: saline sonified 101 % of control | dose: 200.0 mg/kg/injection, schedule: Q01DX001 (ip), vehicle: saline sonified 97 % of control | dose: 400.0 mg/kg/injection, schedule: Q01DX001 (ip), vehicle: saline sonified 95 % of control
